In the NIST ThermoML archive (doi:10.1016/j.jct.2015.12.020):
Where “and” joins values, the source holds several entries; their conditions need not be identical. Equal entries are not always repeated. ± gives the expanded uncertainty stated by the source.

What was measured:
[1] = molar enthalpy of vaporization or sublimation; conditions: 298.15 K; Crystal; Static calorimetry
[2] = Crystal, Calculated from knudsen effusion weight loss

molar enthalpy [1]	Compound	vapor or sublimation pressure ([2]; 377.16 K)	vapor or sublimation pressure ([2]; 379.12 K)	vapor or sublimation pressure ([2]; 381.1 K)	vapor or sublimation pressure ([2]; 383.16 K)	vapor or sublimation pressure ([2]; 385.1 K)	vapor or sublimation pressure ([2]; 387.09 K)	vapor or sublimation pressure ([2]; 389.15 K)	vapor or sublimation pressure ([2]; 391.1 K)	vapor or sublimation pressure ([2]; 393.1 K)	vapor or sublimation pressure ([2]; 395.15 K)	vapor or sublimation pressure ([2]; 397.13 K)	vapor or sublimation pressure ([2]; 399.12 K)
28.7 ± 0.669 kcal/mol	Cc1nnc(S)[nH]c1=O [6-aza-2-thiothymine]	–	–	–	–	–	–	–	–	–	–	–	–
28.2 ± 0.502 kcal/mol	O=c1cn[nH]c(=O)[nH]1 [6-azauracil]	0.00012 ± 0.0001 kPa and 0.000109 ± 0.0001 kPa	0.000138 ± 0.0001 kPa and 0.000142 ± 0.0001 kPa and 0.000131 ± 0.0001 kPa	0.000167 ± 0.0001 kPa and 0.000164 ± 0.0001 kPa	0.000205 ± 0.0001 kPa and 0.000198 ± 0.0001 kPa and 0.000227 ± 0.0001 kPa	0.000252 ± 0.0001 kPa and 0.000229 ± 0.0001 kPa and 0.000269 ± 0.0001 kPa	0.000301 ± 0.0001 kPa and 0.000282 ± 0.0001 kPa	0.00037 ± 0.0001 kPa and 0.000355 ± 0.0001 kPa and 0.000413 ± 0.0001 kPa	0.000452 ± 0.0001 kPa and 0.000422 ± 0.0001 kPa and 0.000477 ± 0.0001 kPa	0.000538 ± 0.0001 kPa and 0.000515 ± 0.0001 kPa and 0.000575 ± 0.0001 kPa	0.00061 ± 0.0001 kPa and 0.000596 ± 0.0001 kPa and 0.000684 ± 0.0001 kPa	0.000756 ± 0.0001 kPa and 0.000711 ± 0.0001 kPa and 0.000812 ± 0.0001 kPa	0.000901 ± 0.00011 kPa and 0.000859 ± 0.00011 kPa and 0.000945 ± 0.00011 kPa
26.1 ± 0.55 kcal/mol	Cc1n[nH]c(=O)[nH]c1=O [6-azathymine]	–	–	–	–	–	–	–	–	–	–	–	–
